# From patent US11331299B2, “Medicinal use of serrulatane diterpenes” (The University of Sydney, priority 2016, dated 2022)
# Counter-ions that a name gives are not always drawn. Like-named read-outs stand apart in the source and are kept apart here.
# Key:
# Wi38 = assay: OncoPanel normal cell proliferation assay (3-day); format: cell-based; conditions: Homo sapiens, WI-38, 72 h, Wi38, lung fibroblast, 3-day incubation
# CCD 841 CoN = assay: OncoPanel normal cell proliferation assay (3-day); format: cell-based; conditions: Homo sapiens, 72 h, colon epithelial, 3-day incubation
# HMEC = assay: OncoPanel normal cell proliferation assay (3-day); format: cell-based
# [1] = system: 4 normal cell types, CCD 841 CoN, HMEC, HREC and Wi38; assay: OncoPanel normal cell proliferation assay (3-day), panel; format: cell-based; conditions: the other three cell lines (CCD 841 CoN, HREC, Wi38)
# HREC = assay: OncoPanel normal cell proliferation assay (3-day); format: cell-based; conditions: 72 h, renal mixed epithelial, 3-day incubation
# NSD3/WHSC1L1 (h) = target: T1, NSD3/WHSC1L1 (h) (Homo sapiens, UniProt Q9BZ95); assay: Epigenetic enzyme assay, Methyltransferases (MTs); format: biochemical; conditions: Table 10; read-out: Reference IC50
# T1 sequence (Q9BZ95 1-1437): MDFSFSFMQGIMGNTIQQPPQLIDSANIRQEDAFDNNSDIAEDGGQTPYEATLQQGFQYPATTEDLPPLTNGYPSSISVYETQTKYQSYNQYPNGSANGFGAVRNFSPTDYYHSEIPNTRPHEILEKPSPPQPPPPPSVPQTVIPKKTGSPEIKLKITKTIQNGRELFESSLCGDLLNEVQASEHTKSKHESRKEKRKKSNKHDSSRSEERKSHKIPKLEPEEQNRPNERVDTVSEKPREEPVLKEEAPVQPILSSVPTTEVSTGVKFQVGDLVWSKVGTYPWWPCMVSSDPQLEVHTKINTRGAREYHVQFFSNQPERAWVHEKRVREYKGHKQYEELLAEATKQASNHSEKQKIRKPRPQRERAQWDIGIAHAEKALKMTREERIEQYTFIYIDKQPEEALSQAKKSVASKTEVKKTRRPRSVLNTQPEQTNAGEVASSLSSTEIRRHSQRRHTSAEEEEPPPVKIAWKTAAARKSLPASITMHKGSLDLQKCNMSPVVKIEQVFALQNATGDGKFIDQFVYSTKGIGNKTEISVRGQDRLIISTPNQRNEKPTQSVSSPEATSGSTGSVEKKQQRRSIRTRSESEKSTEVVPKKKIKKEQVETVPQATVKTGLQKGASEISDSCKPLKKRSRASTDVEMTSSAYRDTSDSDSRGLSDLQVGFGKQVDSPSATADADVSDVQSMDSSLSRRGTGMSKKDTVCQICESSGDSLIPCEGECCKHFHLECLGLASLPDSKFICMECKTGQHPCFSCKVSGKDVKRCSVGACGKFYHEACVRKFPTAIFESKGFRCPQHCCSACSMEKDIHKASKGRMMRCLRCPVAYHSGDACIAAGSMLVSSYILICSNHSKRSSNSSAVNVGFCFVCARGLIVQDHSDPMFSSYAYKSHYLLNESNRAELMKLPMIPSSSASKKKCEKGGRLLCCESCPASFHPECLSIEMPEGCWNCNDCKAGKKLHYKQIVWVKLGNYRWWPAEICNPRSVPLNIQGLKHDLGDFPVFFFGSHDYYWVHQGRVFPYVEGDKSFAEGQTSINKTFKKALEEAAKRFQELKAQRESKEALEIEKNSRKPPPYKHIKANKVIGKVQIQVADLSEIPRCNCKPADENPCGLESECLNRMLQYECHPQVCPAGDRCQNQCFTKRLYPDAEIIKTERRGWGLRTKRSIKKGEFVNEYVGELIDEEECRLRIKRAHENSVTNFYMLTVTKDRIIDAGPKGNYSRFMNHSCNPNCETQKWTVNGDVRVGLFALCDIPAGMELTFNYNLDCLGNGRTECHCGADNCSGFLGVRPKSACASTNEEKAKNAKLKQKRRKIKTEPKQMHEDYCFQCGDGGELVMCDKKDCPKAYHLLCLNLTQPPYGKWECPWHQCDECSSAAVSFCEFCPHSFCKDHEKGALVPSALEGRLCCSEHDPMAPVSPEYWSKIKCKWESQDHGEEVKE
# [2] = target: T2, sirtuin 2 (h) (inhibitor effect) (Homo sapiens, UniProt Q8IXJ6); assay: Epigenetic enzyme assay, Sirtuins; format: biochemical; conditions: Table 10; read-out: Reference IC50
# T2 sequence (Q8IXJ6 1-389): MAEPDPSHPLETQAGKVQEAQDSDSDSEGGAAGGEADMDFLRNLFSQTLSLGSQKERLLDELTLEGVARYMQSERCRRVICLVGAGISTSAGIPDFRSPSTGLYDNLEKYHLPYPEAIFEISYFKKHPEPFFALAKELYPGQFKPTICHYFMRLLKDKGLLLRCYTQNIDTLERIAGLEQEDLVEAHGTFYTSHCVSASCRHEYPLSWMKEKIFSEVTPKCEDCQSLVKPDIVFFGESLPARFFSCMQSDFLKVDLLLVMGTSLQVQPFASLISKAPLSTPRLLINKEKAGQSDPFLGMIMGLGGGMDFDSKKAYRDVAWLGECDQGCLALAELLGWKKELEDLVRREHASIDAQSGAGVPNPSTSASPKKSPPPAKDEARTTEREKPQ
# WHSC1(h) (NSD2(h)) = target: T3, WHSC1(h) (NSD2(h)) (Homo sapiens, UniProt O96028); assay: Epigenetic enzyme assay, Methyltransferases (MTs); format: biochemical; conditions: Table 10; read-out: Reference IC50
# T3 sequence (O96028 1-1365): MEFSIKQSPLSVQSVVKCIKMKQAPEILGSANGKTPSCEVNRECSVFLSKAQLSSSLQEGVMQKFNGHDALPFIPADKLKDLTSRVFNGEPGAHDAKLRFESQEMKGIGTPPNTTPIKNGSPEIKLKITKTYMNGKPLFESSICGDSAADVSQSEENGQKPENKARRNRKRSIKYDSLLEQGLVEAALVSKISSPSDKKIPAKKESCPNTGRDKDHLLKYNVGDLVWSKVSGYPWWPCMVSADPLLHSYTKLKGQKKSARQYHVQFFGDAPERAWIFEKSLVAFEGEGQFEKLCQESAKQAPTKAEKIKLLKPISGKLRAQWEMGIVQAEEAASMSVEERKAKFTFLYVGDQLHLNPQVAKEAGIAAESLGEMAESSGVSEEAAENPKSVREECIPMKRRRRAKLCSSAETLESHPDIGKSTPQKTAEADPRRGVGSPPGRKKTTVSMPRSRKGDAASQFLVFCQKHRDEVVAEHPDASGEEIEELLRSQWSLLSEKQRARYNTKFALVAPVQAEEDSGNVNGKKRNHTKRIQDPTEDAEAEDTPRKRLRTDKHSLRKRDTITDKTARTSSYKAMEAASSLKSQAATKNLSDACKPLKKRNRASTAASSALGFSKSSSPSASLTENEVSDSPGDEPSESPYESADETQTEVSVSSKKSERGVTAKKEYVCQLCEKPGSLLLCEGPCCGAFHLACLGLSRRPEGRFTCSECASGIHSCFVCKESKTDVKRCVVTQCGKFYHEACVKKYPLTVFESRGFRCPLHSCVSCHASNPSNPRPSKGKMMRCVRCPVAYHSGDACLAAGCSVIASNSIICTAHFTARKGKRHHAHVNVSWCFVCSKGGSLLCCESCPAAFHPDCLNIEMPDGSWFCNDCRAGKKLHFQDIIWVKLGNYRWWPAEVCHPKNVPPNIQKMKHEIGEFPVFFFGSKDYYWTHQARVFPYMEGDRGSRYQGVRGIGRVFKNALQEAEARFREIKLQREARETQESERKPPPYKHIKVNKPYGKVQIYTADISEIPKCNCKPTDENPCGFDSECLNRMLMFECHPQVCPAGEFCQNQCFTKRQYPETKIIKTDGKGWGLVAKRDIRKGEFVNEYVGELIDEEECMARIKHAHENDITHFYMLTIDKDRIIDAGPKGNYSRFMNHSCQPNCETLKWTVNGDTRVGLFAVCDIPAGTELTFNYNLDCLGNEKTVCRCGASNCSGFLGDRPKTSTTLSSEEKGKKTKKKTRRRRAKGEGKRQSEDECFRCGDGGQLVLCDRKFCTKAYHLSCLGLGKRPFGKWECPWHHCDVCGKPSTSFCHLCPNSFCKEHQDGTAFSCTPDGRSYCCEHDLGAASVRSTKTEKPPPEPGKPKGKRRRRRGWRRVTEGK
# NSD1 (h) = NSD1 (h) (Homo sapiens, UniProt Q96L73); assay: Epigenetic enzyme assay, Methyltransferases (MTs); format: biochemical
# NSD1 (h), sequence (Q96L73 whole entry): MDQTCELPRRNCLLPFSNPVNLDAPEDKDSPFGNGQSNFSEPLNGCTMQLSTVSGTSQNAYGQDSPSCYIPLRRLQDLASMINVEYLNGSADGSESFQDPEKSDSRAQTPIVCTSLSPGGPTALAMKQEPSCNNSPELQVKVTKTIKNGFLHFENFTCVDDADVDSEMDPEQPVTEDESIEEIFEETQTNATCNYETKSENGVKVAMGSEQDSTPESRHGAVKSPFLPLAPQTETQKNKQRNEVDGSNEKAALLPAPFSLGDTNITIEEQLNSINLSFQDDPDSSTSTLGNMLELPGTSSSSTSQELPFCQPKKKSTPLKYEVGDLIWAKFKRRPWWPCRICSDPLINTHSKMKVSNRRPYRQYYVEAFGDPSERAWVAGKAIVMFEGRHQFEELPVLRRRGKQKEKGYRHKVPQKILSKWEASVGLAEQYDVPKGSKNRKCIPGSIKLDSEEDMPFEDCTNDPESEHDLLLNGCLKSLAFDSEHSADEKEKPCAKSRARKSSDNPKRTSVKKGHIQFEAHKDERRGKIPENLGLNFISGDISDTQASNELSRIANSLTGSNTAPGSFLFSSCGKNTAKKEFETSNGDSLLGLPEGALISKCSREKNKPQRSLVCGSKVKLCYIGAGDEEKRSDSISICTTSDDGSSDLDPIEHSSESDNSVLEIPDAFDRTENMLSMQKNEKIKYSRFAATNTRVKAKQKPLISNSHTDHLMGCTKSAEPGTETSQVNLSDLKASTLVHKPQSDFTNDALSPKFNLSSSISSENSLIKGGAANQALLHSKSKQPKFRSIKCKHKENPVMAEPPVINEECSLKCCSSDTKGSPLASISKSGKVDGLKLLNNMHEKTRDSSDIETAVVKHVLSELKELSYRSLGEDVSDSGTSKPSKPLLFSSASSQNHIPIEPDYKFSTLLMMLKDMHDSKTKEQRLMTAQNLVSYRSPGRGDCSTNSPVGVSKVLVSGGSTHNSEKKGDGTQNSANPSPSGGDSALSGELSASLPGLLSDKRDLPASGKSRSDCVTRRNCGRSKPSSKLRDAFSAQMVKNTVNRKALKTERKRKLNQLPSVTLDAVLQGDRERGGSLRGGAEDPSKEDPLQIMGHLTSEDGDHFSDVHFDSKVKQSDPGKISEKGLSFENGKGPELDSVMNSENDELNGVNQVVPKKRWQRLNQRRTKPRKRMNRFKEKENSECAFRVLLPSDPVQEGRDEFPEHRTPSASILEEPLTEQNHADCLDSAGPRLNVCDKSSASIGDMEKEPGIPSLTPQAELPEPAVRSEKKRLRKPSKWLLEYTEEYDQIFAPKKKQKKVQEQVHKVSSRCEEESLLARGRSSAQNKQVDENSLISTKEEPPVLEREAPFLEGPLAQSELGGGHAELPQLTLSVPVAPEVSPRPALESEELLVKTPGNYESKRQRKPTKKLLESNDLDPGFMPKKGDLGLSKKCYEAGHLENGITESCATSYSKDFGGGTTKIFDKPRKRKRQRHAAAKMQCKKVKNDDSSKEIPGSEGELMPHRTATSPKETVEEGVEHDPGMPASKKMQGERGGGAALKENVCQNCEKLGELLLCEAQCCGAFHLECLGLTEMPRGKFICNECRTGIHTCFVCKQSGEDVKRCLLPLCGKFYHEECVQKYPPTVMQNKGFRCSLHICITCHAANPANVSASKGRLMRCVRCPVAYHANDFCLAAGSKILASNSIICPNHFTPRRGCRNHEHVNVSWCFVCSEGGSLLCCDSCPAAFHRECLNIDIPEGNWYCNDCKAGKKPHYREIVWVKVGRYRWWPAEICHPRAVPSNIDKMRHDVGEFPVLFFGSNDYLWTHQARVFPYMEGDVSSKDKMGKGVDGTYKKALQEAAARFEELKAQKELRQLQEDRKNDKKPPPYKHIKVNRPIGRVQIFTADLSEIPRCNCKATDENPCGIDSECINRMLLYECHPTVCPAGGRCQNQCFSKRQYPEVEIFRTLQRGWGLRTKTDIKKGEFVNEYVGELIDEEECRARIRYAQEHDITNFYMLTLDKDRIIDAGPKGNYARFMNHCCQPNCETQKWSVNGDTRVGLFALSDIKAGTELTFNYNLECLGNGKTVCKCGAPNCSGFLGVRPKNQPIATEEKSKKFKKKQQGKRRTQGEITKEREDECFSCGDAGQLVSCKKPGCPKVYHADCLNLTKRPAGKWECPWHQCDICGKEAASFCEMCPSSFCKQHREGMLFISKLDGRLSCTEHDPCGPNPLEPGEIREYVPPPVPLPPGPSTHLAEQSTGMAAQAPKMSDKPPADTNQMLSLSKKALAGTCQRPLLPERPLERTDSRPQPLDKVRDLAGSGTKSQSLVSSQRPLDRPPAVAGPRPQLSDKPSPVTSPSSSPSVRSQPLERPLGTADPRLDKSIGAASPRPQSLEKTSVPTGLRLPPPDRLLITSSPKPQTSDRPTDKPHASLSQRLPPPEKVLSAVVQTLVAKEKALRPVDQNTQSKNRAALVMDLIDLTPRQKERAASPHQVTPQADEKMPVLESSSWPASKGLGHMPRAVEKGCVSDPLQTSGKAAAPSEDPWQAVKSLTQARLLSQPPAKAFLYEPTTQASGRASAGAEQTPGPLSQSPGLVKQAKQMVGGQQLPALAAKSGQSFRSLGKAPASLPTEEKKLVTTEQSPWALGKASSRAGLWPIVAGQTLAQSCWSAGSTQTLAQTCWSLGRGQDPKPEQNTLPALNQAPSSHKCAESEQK
# USP 16 (h) = USP 16 (h) (Homo sapiens, UniProt Q9Y5T5); assay: Epigenetic enzyme assay, Ubiquitin modifying enzymes; format: biochemical; conditions: Table 10; read-out: Reference IC50
# USP 16 (h), sequence (Q9Y5T5 whole entry): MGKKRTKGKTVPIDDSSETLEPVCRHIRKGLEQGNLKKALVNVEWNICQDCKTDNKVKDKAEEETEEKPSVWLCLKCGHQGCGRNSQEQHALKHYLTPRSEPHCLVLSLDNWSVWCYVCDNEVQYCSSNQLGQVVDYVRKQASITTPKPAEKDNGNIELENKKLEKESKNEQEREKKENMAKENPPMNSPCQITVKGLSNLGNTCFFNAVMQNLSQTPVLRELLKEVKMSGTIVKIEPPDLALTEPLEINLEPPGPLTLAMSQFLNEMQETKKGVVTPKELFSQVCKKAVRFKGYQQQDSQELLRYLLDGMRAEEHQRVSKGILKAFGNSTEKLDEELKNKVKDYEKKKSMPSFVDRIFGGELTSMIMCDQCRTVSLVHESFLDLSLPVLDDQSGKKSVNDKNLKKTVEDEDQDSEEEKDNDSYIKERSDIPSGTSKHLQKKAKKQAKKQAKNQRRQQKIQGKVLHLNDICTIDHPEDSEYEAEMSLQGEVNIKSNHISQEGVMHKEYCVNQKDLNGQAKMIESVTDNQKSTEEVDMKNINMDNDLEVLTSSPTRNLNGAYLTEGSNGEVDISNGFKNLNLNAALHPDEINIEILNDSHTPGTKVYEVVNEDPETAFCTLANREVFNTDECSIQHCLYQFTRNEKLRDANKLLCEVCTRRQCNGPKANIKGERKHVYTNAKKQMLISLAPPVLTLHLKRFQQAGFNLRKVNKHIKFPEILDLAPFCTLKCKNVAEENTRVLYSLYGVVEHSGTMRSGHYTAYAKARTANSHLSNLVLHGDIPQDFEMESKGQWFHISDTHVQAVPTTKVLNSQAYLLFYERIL
# SETD8 (h) = target: T4, SETD8 (h) (Homo sapiens, UniProt Q9NQR1); assay: Epigenetic enzyme assay, Methyltransferases (MTs); format: biochemical; conditions: Table 10; read-out: Reference IC50
# T4 sequence (Q9NQR1 1-393): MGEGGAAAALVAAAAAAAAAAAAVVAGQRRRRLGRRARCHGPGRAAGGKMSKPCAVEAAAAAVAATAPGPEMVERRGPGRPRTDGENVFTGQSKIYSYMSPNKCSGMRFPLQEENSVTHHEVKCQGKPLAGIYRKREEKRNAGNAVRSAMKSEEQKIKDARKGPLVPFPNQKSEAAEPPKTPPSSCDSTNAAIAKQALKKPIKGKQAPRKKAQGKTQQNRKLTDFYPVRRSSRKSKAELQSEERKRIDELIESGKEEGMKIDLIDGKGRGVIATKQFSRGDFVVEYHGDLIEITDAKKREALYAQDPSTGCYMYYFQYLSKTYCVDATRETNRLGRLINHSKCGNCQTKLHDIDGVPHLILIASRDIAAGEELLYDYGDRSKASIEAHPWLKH
# Lipid Peroxidase = assay: Lipid Peroxidase; format: biochemical, Dunkin Hartley Guinea pig; conditions: concentration-response 10 to 0.01 μM
# [3] = system: IL-17A secretion from human PBMC stimulated with antiCD3/antiCD28-coated beads; conditions: assay description, reference compound, cited from earlier work
# USP 10 (h) = USP 10 (h) (Homo sapiens, UniProt Q14694); assay: Epigenetic enzyme assay, Ubiquitin modifying enzymes; format: biochemical; conditions: Table 10; read-out: Reference IC50
# USP 10 (h), sequence (Q14694 whole entry): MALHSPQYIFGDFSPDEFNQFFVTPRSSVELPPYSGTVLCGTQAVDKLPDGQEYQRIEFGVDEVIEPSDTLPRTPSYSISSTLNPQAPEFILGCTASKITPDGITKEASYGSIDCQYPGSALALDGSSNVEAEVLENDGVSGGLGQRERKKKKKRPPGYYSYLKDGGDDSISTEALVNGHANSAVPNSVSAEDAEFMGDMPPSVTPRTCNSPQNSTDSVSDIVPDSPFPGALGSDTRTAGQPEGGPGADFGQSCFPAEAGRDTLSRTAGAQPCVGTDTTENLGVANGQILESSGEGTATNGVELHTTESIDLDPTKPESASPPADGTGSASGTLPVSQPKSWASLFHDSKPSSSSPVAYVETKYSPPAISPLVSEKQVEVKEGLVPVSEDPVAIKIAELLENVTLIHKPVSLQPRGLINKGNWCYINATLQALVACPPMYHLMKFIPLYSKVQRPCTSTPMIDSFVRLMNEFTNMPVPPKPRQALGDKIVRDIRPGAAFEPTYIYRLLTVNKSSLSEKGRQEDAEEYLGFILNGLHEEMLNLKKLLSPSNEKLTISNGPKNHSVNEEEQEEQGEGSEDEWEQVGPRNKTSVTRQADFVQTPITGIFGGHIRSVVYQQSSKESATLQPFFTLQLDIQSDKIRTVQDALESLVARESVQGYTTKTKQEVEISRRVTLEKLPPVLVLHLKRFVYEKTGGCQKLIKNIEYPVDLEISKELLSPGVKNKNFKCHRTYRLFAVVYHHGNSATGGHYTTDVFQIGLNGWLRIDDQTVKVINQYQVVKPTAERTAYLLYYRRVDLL
# PB1(4) (h) bromodomain = target: T5, PB1(4) (h) bromodomain (Homo sapiens, UniProt Q86U86); assay: Epigenetic binding assay, Bromodomain; conditions: Table 4; read-out: Reference IC50
# T5 construct: Bromodomain
# T5 sequence (Q86U86 518-625 limits assumed): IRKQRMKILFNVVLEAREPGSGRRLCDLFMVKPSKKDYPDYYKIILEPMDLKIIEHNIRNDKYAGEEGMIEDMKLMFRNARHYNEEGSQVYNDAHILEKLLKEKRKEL
# ATAD2B (h) bromodomain = target: T6, ATAD2B (h) bromodomain (Homo sapiens, UniProt Q9ULI0); assay: Epigenetic binding assay, Bromodomain; conditions: Table 4; read-out: Reference IC50
# T6 construct: ATAD2B bromodomain; host or cells: E. coli
# T6 sequence (Q9ULI0 951-1066 limits assumed): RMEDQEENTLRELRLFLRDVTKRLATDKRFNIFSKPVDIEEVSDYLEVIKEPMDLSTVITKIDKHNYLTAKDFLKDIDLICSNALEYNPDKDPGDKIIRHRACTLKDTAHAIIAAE
structure (smiles),measurement,setting,value
"CC(=O)O[C@H]1C(=O)[C@@]2(C)[C@H]([C@H](OC(=O)c3ccccc3)[C@]3(O)C[C@H](OC(=O)[C@H](O)[C@@H](NC(=O)c4ccccc4)c4ccccc4)C(C)=C1C3(C)C)[C@]1(OC(C)=O)CO[C@@H]1C[C@@H]2O [Paclitaxel, paclitaxel]",EC50,Wi38; read-out: Cell Count EC50,0.0039 µM
same,GI50,Wi38; read-out: Cell Count GI50,0.0036 µM
same,IC50,Wi38; read-out: Cell Count IC50,0.00941 µM
same,EC50,CCD 841 CoN; read-out: Cell Count EC50,0.0119 µM
same,GI50,CCD 841 CoN; read-out: Cell Count GI50,0.0221 µM
same,toxicity towards normal cells,HMEC,low toxicity
same,EC50,"HMEC; Homo sapiens, 72 h, HMEC, mammary epithelial, 3-day incubation, read-out: Cell Count EC50",> 30 µM
same,GI50,"HMEC; Homo sapiens, 72 h, HMEC, mammary epithelial, 3-day incubation, read-out: Cell Count GI50",> 30 µM
same,IC50,"HMEC; Homo sapiens, 72 h, HMEC, mammary epithelial, 3-day incubation, read-out: Cell Count IC50",> 30 µM
same,toxicity towards normal cells,[1],high toxicity
same,EC50,HREC; read-out: Cell Count EC50,0.00172 µM
same,GI50,HREC; read-out: Cell Count GI50,0.0016 µM
same,IC50,HREC; read-out: Cell Count IC50,0.0484 µM
"Cc1ccc(C(=O)Nc2ccc(S(=O)(=O)O)c3cc(S(=O)(=O)O)cc(S(=O)(=O)O)c23)cc1NC(=O)c1cccc(NC(=O)Nc2cccc(C(=O)Nc3cc(C(=O)Nc4ccc(S(=O)(=O)O)c5cc(S(=O)(=O)O)cc(S(=O)(=O)O)c45)ccc3C)c2)c1 [suramin, reference compound]",IC50,NSD3/WHSC1L1 (h),1.5 µM
same,IC50,[2],21 µM
"CN1C(=O)[C@@]23C[C@]4([C@]56C[C@@]78SS[C@@](CO)(C(=O)N7[C@H]5Nc5ccccc56)N(C)C8=O)c5ccccc5N[C@@H]4N2C(=O)[C@]1(CO)SS3 [chaetocin, reference compound]",IC50,WHSC1(h) (NSD2(h)),0.48 µM
same,IC50,"NSD1 (h); Table 10, read-out: Reference IC50",0.13 µM
same,IC50,"NSD1 (h); Table 11, inhibition/concentration-response curve, read-out: IC50",0.24 µM
"NC(=O)CI [Iodoacetamide, reference compound]",IC50,USP 16 (h),3.5 µM
"O=C([O-])c1ccccc1-c1c2cc(Br)c(=O)cc-2oc2[c]([Hg+])c([O-])c(Br)cc12.[Na+].[Na+].[OH-] [mercurochrome, reference compound]",IC50,SETD8 (h),2.4 µM
"CCCOC(=O)c1cc(O)c(O)c(O)c1 [N-Propyl Gallate, reference compound]",IC50,Lipid Peroxidase,206 µM
C=CC[C@@H]1/C=C(\C)C[C@H](C)C[C@H](OC)[C@H]2O[C@@](O)(C(=O)C(=O)N3CCCC[C@H]3C(=O)O[C@H](/C(C)=C/[C@@H]3CC[C@@H](O)[C@H](OC)C3)[C@H](C)[C@@H](O)CC1=O)[C@H](C)C[C@@H]2OC [Tacrolimus],"Emax (plateau of the fitted curve), IL-17A release",[3],approximately 90%
same,EC50,"[3]; read-out: EC50, inhibition of IL-17A release",~0.00034 µM
"CN1C(=O)C=CC1=O [N-Methylmaleimide, reference compound]",IC50,USP 10 (h),1000 µM
"Cc1cc(/N=N/c2cc(S(=O)(=O)O)c(C)cc2C)c(N)cc1O [Ischemin sodium salt, reference compound]",IC50,PB1(4) (h) bromodomain,6.8 µM
same,IC50,ATAD2B (h) bromodomain,76.6 µM
